Data on one molecule can be found in publication PMC10419252, “Synthesis, Properties, and Biomedical Application of Dicationic Gemini Surfactants with Dodecane Spacer and Carbamate Fragments” (International Journal of Molecular Sciences, 2023).

For data set [1], the system named is methicillin-resistant S. aureus MRSA-1 (resistant to fluoroquinolones and beta-lactams). In words: Antimicrobial activity (MRSA-1). Format: cell-based. The conditions noted are these: Staphylococcus aureus, MRSA. The procedure:
(§1) The antimicrobial activity of the compounds was tested on Gram-positive Staphylococcus aureus ATCC 6538P FDA 209P (Sa), Bacillus cereus ATCC 10702 NCTC 8035 (Bc), Enterococcus faecalis ATCC 29212 (Ef), and Gram-negative bacteria Escherichia coli ATCC 25922 (Ec), Pseudomonas aeruginosa ATCC 9027 (Pa), including methicillin-resistant strains of S. aureus MRSA-1 (resistant to fluoroquinolones and beta-lactams) and MRSA-2 (resistant to beta-lactams). Antifungal activity was studied against Candida albicans ATCC 10231 (Ca), Trichophyton mentagrophytes var. gypseum 1773 (Tm), and Aspergillus niger BKMF-1119 (An). A more detailed description of the experiment is published in [21].

Data set [2] can be described thus: Indomethacin solubilization, spectrophotometry. Format: physicochemical. The conditions noted are these: 298 K. As to the method:
The cmc and the solubilizing capacity (S) of surfactants were determined using the spectral azo dye OOT and the non-steroidal anti-inflammatory drug IND. To obtain a saturated solution, an excess of OOT and IND was added to 2 mL of a surfactant solution, stirred, and kept for 48 and 24 h, respectively. After that, the solutions were filtered using Millex® Syringe Filters (Millipore, Burlington, MA, USA) with a pore size of 450 nm, and the optical density was measured. The absorption spectra were recorded on a Specord 250 Plus spectrophotometer (Analytik Jena AG, Jena, Germany). Quartz cells with a thickness of 1 and 0.5 cm (Hellma Analytics, Müllheim, Germany) were used for measurements.
The solubilizing capacity (S) was determined using the following formula:S = b/ε, where b is D/l = f (Csurf) dependency slope (above cmc), ε is the extinction coefficient (17,400 L/mol∙cm for OOT, and the extinction coefficients of IND are determined in GS solutions and presented in Figure S10).

Data set [3] deals with Enterococcus faecalis ATCC 29212. In words: Antimicrobial activity (Ef). Format: cell-based. The conditions noted are these: Enterococcus faecalis. As to the method:
as §1

A short description of data set [4]: Tensiometry (Du Nouy ring), surface tension isotherms. Format: physicochemical. The procedure:
The surface tension isotherms of the micellar solutions were determined using the Du Nouy platinum ring detachment method on a K6 tensiometer (KRŰSS GmbH, Hamburg, Germany). For the experiment, surfactant solutions with a volume of 10 mL were prepared. The measurements were carried out strictly at 298 K in glass beakers, the diameter of which exceeded the diameter of the platinum ring. Surface tension measurements were carried out until stable values were obtained. After each measurement, the ring was degreased in ethanol and thoroughly dried. The cmc of the micellar solutions was determined from the breakpoint on the isotherm of surface tension versus surfactant concentration. The thermodynamic parameters of adsorption and micellization were calculated for all systems based on the obtained tensiometric curves.

The subject of data set [5] is Staphylococcus aureus ATCC 6538P FDA 209P. In words: Antimicrobial activity (Sa). It is filed as cell-based. The conditions noted are these: Staphylococcus aureus. The procedure: as §1
In data set [6] the target is T1, human butyrylcholinesterase (hBChE) (Homo sapiens, UniProt P06276).
T1 construct: purchased Sigma-Aldrich
In words: In vitro cholinesterase inhibition, Ellman's method (hBChE). It is filed as biochemical. The procedure: Stock solutions (0.01 M) of the compounds were dissolved in H2O. The inhibitory activity of compounds against hAChE and hBChE was measured using Ellman’s method. Enzyme-catalyzed hydrolysis was carried out in 0.1 M PBS (pH = 8.0) containing 0.1 nM hAChE or hBChE, 0.1 mM 5,5′-dithiobis-(2-nitrobenzoic acid) and 1mM acetylthiocholine or butyrylthiocholine as substrates. The tested compounds were incubated with the enzyme for 5 min prior to the addition of the substrate. Analyses were performed at 298 K using a Shimadzu UV-1800 spectrophotometer (Shimadzu Co., Kyoto, Japan) at 412 nm. The substrate hydrolysis rate was measured within 2 min. A sample without inhibitor was used as a control (100% cholinesterase activity). A sample without substrate was used as a blank. The experiments were conducted in triplicate. The percentage of enzyme inhibition was determined using OriginPro 8.5 software (OriginLab Corporation, Northampton, MA, USA) by plotting a percentage of the inhibition versus compound concentration. IC50 values (inhibitor concentration required to inhibit enzyme activity by 50%) were determined by the Hill equation: E/Emax=[I]^n/IC50n+[I]^n, where E is enzyme activity in the presence of the compound, and [I] is the compound concentration.

In data set [7] the test system is Bacillus cereus ATCC 10702 NCTC 8035. The data set is described as follows: Antimicrobial activity (Bc). Format: cell-based. The conditions noted are these: Bacillus cereus. As to the method: as §1

“And” between values parts separate entries of the source, which are not always exact repeats. Equal values may be shown once.

T1 sequence (P06276 29-602): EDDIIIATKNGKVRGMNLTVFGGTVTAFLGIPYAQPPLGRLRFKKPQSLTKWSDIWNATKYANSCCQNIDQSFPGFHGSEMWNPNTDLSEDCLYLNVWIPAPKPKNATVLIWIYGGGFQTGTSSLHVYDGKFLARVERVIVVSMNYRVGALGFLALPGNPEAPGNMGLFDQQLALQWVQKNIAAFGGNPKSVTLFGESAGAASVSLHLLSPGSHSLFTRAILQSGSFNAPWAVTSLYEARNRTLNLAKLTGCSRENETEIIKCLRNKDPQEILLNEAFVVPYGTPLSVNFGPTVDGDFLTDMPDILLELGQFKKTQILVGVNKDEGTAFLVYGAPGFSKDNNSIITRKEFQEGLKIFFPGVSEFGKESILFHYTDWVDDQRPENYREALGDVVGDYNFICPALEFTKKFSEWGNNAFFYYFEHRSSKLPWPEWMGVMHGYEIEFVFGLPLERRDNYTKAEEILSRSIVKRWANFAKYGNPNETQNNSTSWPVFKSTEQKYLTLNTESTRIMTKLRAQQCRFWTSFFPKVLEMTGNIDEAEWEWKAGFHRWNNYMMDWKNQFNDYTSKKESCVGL

Turning to `CCCCCCCCCCCCCC[N+](C)(CCCCCCCCCCCC[N+](C)(CCCCCCCCCCCCCC)CCOC(=O)NCC)CCOC(=O)NCC` (stereo not drawn) [14-12-14(Et)], the minimum bactericidal concentration (MBC) (as a rule, the smallest concentration meeting the test's criterion for killing) in data set [1] (read-out: MBC, MRSA-1) worked out at 7.8 ± 0.6 µg/mL; in data set [3] (ATCC29212, read-out: MBC, Ef), 3.9 ± 0.2 µg/mL; in data set [5] (read-out: MBC, Sa), 3.9 ± 0.3 µg/mL; in data set [7] (read-out: MBC, Bc) it was 125 ± 9 µg/mL. For the same molecule, the MIC (in general, the lowest concentration found to suppress growth) in data set [1] (read-out: MIC, MRSA-1) worked out at 7.8 ± 0.6 µg/mL; in data set [3] (ATCC29212, read-out: MIC, Ef), 3.9 ± 0.3 µg/mL; in data set [5] (read-out: MIC, Sa), 3.9 ± 0.2 µg/mL; in data set [7] (read-out: MIC, Bc), 125 ± 10 µg/mL. In addition, in data set [2], the “S (solubilizing capacity), IND” value worked out at 1.51 molprobe/molGS. The “Amin (surface area per surfactant molecule)” value in data set [4] (298 K) is reported as 0.52 nm^2. Also, the “Гmax∙10^6 (maximum surface excess)” value in data set [4] (298 K) turned out to be 3.21 mol∙m^−2. Also, in data set [4] (298 K), the “∆Gmic (free energy of micellization)” value is -8.84 kcal/mol. Besides, the “calculated adsorption layer thickness” value in data set [4] (air/water interface) was 3.3 nm. Besides, in data set [4] (tensiometry, 298 K), the cmctens was 0.013 mM and 0.013 ± 0.0007 mM. In addition, the IC50 (as a rule, the midpoint of a concentration-inhibition curve) in data set [6] came to 1.44 ± 0.52 µM.
